Laboratory results reported in US20190038602A1, “GRANZYME B INHIBITOR FORMULATIONS AND METHODS FOR THE TREATMENT OF BURNS” (viDA Therapeutics, Inc., priority 2016, published 2019).
Values joined by “and” are separate entries in the source; they are usually repeats but may differ in a detail not shown here. Equal entries are not always repeated.

Assays:
[1] = Compound A concentration at saturation in penetration enhancer vehicles (UPLC); format: physicochemical
Experimental: Compound A was dissolved at saturation in various vehicles containing PE in pH 5 acetate buffer (see Table 2). An excess amount of Compound A and the corresponding vehicle were mixed by rotary mixer at room temperature for 24 hours and subsequent filtration through 0.22 μm cellulose acetate membrane. Concentration of Compound A was measured by UPLC.

[2] = Ex vivo pig ear skin permeation, Franz Diffusion Cell System; format: in vitro ADME; settings: for Compound A in tape-stripped skin samples, Average: n=3; for Skin concentration (Compound A in tape-stripped skin, single replicates): listed as Compound A
Experimental: […] Formulations were delivered to the skin over a period of 6 hours and drug permeation was assessed by UPLC-MS/MS analysis of tape-stripped skin and receptor fluid. Receptor fluid samples were collected for analysis at 3 and 6 hour time points.
Compound A permeation through skin was assessed ex vivo by using pig ear skin and a Franz Diffusion Cell System (PermeGear®).
Fresh pig ears were obtained from female Yorkshire/Landrace crosses, between 3.5-5 months old, at Jack Bell Research Centre, Vancouver. Immediately after surgery, pig ears were removed and placed in a double Ziploc® bag and stored at −20° C. freezer until shipment to laboratory site on ice via courier the next day. Upon arrival at the site, pig ears were stored in a segregated container, labeled with harvest and shipment date, in −20° C. freezer and were used prior to their expiry date of 5 weeks. Pig skin was prepared according to “Preparation of Pig Skin Samples for ex vivo Permeation Assays.” Briefly, one day prior to the study, frozen ears were thawed washed with deionized water and blotted dry. After trimming off hair, surface skin was separated from cartilage and fat, and hole-punched into coin shape samples to fit dimensions of Franz cells. Pig ear samples were stored in a petri dish, sealed with parafilm tape, in double Ziploc® bags at −20° C. overnight prior to the study on the following day.
Set up of the diffusion cell system was performed according to “Setup, Operation and Cleaning Procedure for Franz Diffusion Cell System.” Prior to application of formulations, skin integrity of each skin sample was determined by measuring the electrical resistance. The electrical resistance was measured with a Model 878B Dual Display LCR Meter (BK Precision®) connected to two stainless steel electrodes, using a setting of 1 KHz. Measurements were taken at least 30 minutes after mounting skin samples to ensure temperature and humidity equilibration. The donor and receptor chamber were filled with 300 μL and 5 mL of pH 7.4 phosphate buffered saline (PBS), respectively, and both electrodes were immersed in solution without touching the skin membrane. Any skin membrane giving an electrical resistance below 4.0 kΩ was discarded and replaced.
Throughout the permeation assay, all cells were maintained at 32° C. and sink condition was maintained in the receptor fluid. Receptor chambers were filled with 4.75 mL of receptor fluid (pH 7.4 PBS) and were kept stirring for the entire duration of the experiment. Skin samples were mounted above the receptor chamber, in direct contact with the receptor fluid, and then donor chambers were mounted above the skin. Any air bubbles between the skin tissue and the receptor fluid were carefully removed prior to application of formulations. The appropriate formulation (300 μL) was added to the donor chamber and the opening of the cell was covered with Parafilm® to prevent evaporation of the test article. Three skin samples per formulation (N) were tested. Three components (receptor fluid, applied formulation and skin samples) were sampled for subsequent analysis. Receptor fluid was sampled at 3 and 6 hours (without volume replacement) and stored at −20° C. until analysis. At the end of the experiment, the applied formulation was recovered from the donor chamber and recorded as the unabsorbed dose. The skin was then blotted dry with a Kimwipe® and tape-stripped skin (12 tape strips) was obtained. The first tape strip (3M scotch tape) was used to remove excess of formulation remaining on the skin and was discarded. Then a total of 11 tape strips were used to partially remove the stratum corneum. These tape strips were kept in labeled glass vial. Then using a hole-puncher the section of skin exposed to the formulation was removed and the corresponding weight of the skin sample was recorded. All samples were stored at −20° C. until analysis. […]

burn wound = assay: Burn wound healing in mice (deep partial thickness thermal injury, degree IIb); format: in vivo
Experimental: In the studies described herein, all mice were initially anesthetized using mixture of isoflurane/oxygen (Iso about 2-2.5%/oxygen flow rate of about 1.5-2 L/min) in an induction chamber, then moved to a Baines system with a 1-2.5%/1.5-2 L/min flow rate. During anesthesia the mice were placed on a warming pad with a nose cone over the mice to maintain the anesthetic state. The toe nails were trimmed with clippers. A metal rod (25 g, 1 cm in diameter) was heated to 95-100° C. by submersion in boiling water for 3-5 min. The rod was immediately positioned vertically for 6 seconds without additional pressure on the dorsal skin of mice that had also been depilated 3 days before wounding. This procedure induces a deep partial thickness thermal injury (degree IIb). The severity of the thermal injury is classified according to Exp Dermatol. 2010; 19(9):777-783.

[3] = Concentration of Compound A in skin after application of gel (FIG. 3B); settings: 50 μL gel, 0.35% w/v Compound A
Experimental: FIG. 3A is an image of skin to which a volume (50 μL) of a representative formulation of the invention that includes Compound A was applied. The applied formulation (gel) includes Compound A at a concentration of 0.35% w/v in a vehicle containing propylene glycol (20% w/w), Carbopol 940 (0.5% w/v), methyl paraben (0.2% w/w), propyl paraben (0.02% w/w) and acetate buffer pH 5 (QS). Triethylamine was used to adjust the final formulation pH to 5-6.
(§1) FIG. 3B compares concentration of Compound A (μg/μL) in the skin at 4, 6, and 24 hours after application of a volume (50 μL) of a representative formulation of the invention that includes Compound A as described above for FIG. 3A.
as §1, with “FIG. 3A is an image of skin to which a volume (50 μL) of a representative formulation of the invention that includes Compound A was applied. FIG. 3B” for “FIG. 3B”

CC[C@H](C)[C@H](NC(=O)CCC(=O)O)C(=O)NCC(=O)N1C(=O)N(C2CCCCC2)C[C@H]1C(=O)NCc1nn[nH]n1 [Compound C2, 4-(((2S,3S)-1-((2-((S)-5-(((2H-tetrazol-5-yl)methyl)carbamoyl)-3-cyclohexyl-2-oxoimidazolidin-1-yl)-2-oxoethyl)amino)-3-methyl-1-oxopentan-2-yl)amino)-4-oxobutanoic acid]
Compound A Concentration in Formulation ([1]; Water + 20% N-methyl-2-pyrollidone (NMP)): 1.13 mg/mL
Compound A Concentration in Formulation ([1]; pH5 acetate buffer + 10% Transcutol (TC)): 2.99 mg/mL
Compound A Concentration in Formulation ([1]; pH5 acetate buffer + 10% dimethylisosorbide (DMI)): 3.18 mg/mL
Compound A Concentration in Formulation ([1]; pH5 acetate buffer + 10% urea): 3.04 mg/mL
Compound A Concentration in Formulation ([1]; pH5 acetate buffer + 15% TWEEN 80): 1.56 mg/mL
Compound A Concentration in Formulation ([1]; pH5 acetate buffer + 20% propylene glycol (PG), room temperature 24 hours): 2.82 mg/mL
Compound A in tape-stripped skin samples, Average ([2]; Water + 20% N-methyl-2-pyrollidone (NMP), 6 hour exposure): 4846 ng/g
Skin concentration (Compound A in tape-stripped skin, single replicates) ([2]; Water + 20% NMP, 6 h exposure): 4313 ng/g and 4985 ng/g and 5241 ng/g
Skin concentration (Compound A in tape-stripped skin, single replicates) ([2]; pH5 acetate buffer + 10% DMI, 6 h exposure): 13975 ng/g and 6214 ng/g and 6311 ng/g
Compound A in tape-stripped skin samples, Average ([2]; pH5 acetate buffer + 10% Dimethyl Isosorbide (DMI), 6 hour exposure): 8833 ng/g
Skin concentration (Compound A in tape-stripped skin, single replicates) ([2]; pH5 acetate buffer + 10% TC, 6 h exposure): 5869 ng/g and 8886 ng/g and 1629 ng/g
Compound A in tape-stripped skin samples, Average ([2]; pH5 acetate buffer + 10% Transcutol (TC), 6 hour exposure): 5461 ng/g
Skin concentration (Compound A in tape-stripped skin, single replicates) ([2]; pH5 acetate buffer + 10% Urea, 6 h exposure): 5588 ng/g and 19422 ng/g and 2943 ng/g
Compound A in tape-stripped skin samples, Average ([2]; pH5 acetate buffer + 10% Urea, 6 hour exposure): 9317 ng/g
Skin concentration (Compound A in tape-stripped skin, single replicates) ([2]; pH5 acetate buffer + 15% Tw80, 6 h exposure): 4937 ng/g and 1968 ng/g and 4442 ng/g
Compound A in tape-stripped skin samples, Average ([2]; pH5 acetate buffer + 15% Tween 80, 6 hour exposure): 3782 ng/g
Skin concentration (Compound A in tape-stripped skin, single replicates) ([2]; pH5 acetate buffer + 20% PG, 6 h exposure): 4785 ng/g and 10012 ng/g and 6515 ng/g and 4784 ng/g
Compound A in tape-stripped skin samples, Average ([2]; pH5 acetate buffer + 20% Propylene Glycol (PG), 6 hour exposure): 7104 ng/g
Average skin concentrations ([2]; tape-stripped skin, 6 hours, span over the six formulations): 3700 to 9300 ng/g
Burn wound healing (percent of original wound size, falling of scabs) (burn wound; subcutaneous injection, solution in PBS 0.56 mg/ml, vs saline, Day 0 to Day 30): attenuation of initial burn expansion in the zone of stasis and improved burn wound healing
Quality of healed wound (epidermal thickness, decorin level, collagen level) (burn wound; topical gel): improves quality of healed wound
Burn wound healing (percent of original wound size, falling of scabs) (burn wound; topical gel vs saline control): attenuation of initial burn expansion in the zone of stasis and improved burn wound healing
Burn wound healing (percent of original wound size) (burn wound; topical gel vs vehicle control, repeated study, Day 0 to Day 24): attenuation of initial burn expansion in the zone of stasis and improved burn wound healing
Stability and retention in skin (concentration at 4, 6 and 24 hours) [3]: stable and effectively retained in the skin

CC[C@H](C)[C@H](NC(=O)CCC(=O)O)C(=O)NCC(=O)N1C(=O)N(C2CCCCC2)C[C@H]1C(=O)NCc1nn[nH]n1 [Compound 1A, 4-(((2S,3S)-1-((2-((S)-5-(((2H-tetrazol-5-yl)methyl)carbamoyl)-3-cyclohexyl-2-oxoimidazolidin-1-yl)-2-oxoethyl)amino)-3-methyl-1-oxopentan-2-yl)amino)-4-oxobutanoic acid]
In vivo performance of gel (burn wound; 3.6 mg/mL gel, pH 6.0 with triethanolamine, compared with Compound 1 gel (triethylamine)): performance comparable to that of another representative formulation
